Test results published in publication PMC10742508, “The Structure and Nucleotide-Binding Characteristics of Regulated Cystathionine β-Synthase Domain-Containing Pyrophosphatase without One Catalytic Domain” (International Journal of Molecular Sciences, 2023).

Key:
Type in all cases: binding
[1] = target: T1, CDC (separate regulatory part of dhPPase) (Desulfitobacterium hafniense, UniProt B8FP42); experiment: ThermoFluor, SYPRO Orange; conditions: 2 mM MgCl2, 0.1 mM CoCl2, 150 mM KCl, pH 7.2
T1 construct: gene Dhaf_1515; regulatory insert only (CBS1-DRTGG-CBS2)
Description: ThermoFluor, SYPRO Orange on CDC (separate regulatory part of dhPPase)

[2] = target: T2, dhPPase (full-size CBS-PPase) (Desulfitobacterium hafniense, UniProt B8FP42); experiment: ThermoFluor, SYPRO Orange; conditions: 200 µM AMP, 2 mM MgCl2, 0.1 mM CoCl2, 150 mM KCl, pH 7.2; peak II = regulatory part
T2 construct: gene Dhaf_1515
Description: ThermoFluor, SYPRO Orange on dhPPase (full-size CBS-PPase)

ΔdhPPase [3] = target: T3, ΔdhPPase (Desulfitobacterium hafniense, UniProt B8FP42); experiment: ThermoFluor, SYPRO Orange; conditions: 200 µM AMP, 2 mM MgCl2, 0.1 mM CoCl2, 150 mM KCl, pH 7.2; peak II = regulatory part
T3 construct: gene Dhaf_1515
T3 sequence (B8FP42 1-423): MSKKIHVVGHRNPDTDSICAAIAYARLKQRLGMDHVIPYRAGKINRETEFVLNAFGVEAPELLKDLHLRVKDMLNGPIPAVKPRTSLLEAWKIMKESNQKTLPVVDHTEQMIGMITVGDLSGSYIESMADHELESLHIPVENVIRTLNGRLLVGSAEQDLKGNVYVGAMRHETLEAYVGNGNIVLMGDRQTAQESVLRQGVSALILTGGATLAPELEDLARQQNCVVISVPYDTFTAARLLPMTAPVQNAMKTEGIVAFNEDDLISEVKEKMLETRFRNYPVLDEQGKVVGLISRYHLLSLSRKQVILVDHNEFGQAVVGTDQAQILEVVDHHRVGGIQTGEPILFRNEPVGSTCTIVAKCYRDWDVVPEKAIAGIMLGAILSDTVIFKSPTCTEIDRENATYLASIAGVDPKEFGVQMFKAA
Description: ThermoFluor, SYPRO Orange on ΔdhPPase

[4] = target: T2, dhPPase (full-size CBS-PPase); experiment: isothermal titration calorimetry, single-site model; conditions: read-out: KN
Description: isothermal titration calorimetry, single-site model on dhPPase (full-size CBS-PPase)

ΔdhPPase [5] = target: T4, ΔdhPPase (Desulfitobacterium hafniense, UniProt B8FP42, DEL425-544); experiment: as above; conditions: read-out: KN
T4 construct: gene Dhaf_1515
T4 sequence (B8FP42 1-423): T3 sequence (B8FP42 1-423)
Description: isothermal titration calorimetry, single-site model on ΔdhPPase

T2 sequence (B8FP42 entry or part of it): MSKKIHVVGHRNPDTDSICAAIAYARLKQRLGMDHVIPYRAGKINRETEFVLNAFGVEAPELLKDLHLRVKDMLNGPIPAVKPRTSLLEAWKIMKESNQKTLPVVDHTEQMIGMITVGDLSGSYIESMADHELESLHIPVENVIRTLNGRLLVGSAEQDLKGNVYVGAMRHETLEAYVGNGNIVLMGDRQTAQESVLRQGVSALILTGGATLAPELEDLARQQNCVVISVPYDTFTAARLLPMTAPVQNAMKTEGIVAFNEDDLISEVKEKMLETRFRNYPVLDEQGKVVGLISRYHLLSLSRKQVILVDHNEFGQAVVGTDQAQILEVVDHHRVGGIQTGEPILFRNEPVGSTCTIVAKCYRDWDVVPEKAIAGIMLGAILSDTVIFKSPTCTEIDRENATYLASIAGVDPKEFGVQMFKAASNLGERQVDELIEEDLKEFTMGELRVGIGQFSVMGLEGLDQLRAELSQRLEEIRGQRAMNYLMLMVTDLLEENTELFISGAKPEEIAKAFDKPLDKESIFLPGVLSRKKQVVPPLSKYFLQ

Structure (SMILES) | Tm, °C / CDC ([1]; 200 µM AMP) [°C] | Tm, °C / dhPPase [2] [°C] | Tm, °C / ΔdhPPase (ΔdhPPase [3]) [°C] | Tm, °C / CDC ([1]; 20 µM Ap4A) [°C] | Kd [4] [nM] | Kd (ΔdhPPase [5]) [nM]
Nc1ncnc2c1ncn2[C@@H]1O[C@H](COP(=O)(O)O)[C@@H](O)[C@H]1O [AMP] | 66.5 | 67.4 | 68.6 |  |  | 
Nc1ncnc2c1ncn2[C@@H]1O[C@H](COP(=O)(O)OP(=O)(O)OP(=O)(O)OP(=O)(O)OC[C@H]2O[C@@H](n3cnc4c(N)ncnc43)[C@H](O)[C@@H]2O)[C@@H](O)[C@H]1O [Ap4A] |  |  |  | 61.5 | 10 to 100 | < 10
